# “And” between values parts separate entries of the source, which are not always exact repeats. Identical values can stand only once. “Also recorded” adds a separate entry of the source. Where a SMILES comes first, the peptide text is derived from it. Bridges are numbered along the chain shown (N, C = ends). [ ]: non-standard residue; d: D form. The star is where a group is joined. ξ: configuration not given here. Decanoyl(3ξ-OH) = CCCCCCCC(O)CC(=O)*; Dab = NCC[CH](N)C(=O)O; Dhb = C/C=C(\N)C(=O)O
# Legend:
# [1] = tested on: Listeria monocytogenes EGDe; assay: Cell growth (cell density, OD600) during treatment over 120 min; type: cell-based
# Method: FIG. 6B includes a graph that illustrates the amount of cell growth in response to being treated with SP 25A, RLs and saline (control) over a period of 120 min. […] The lack of positive correlation between membrane permeabilization (FIG. 6A) and inhibition of cell growth (FIG. 6B) of SP 25A inferred that the pore forming model alone was not be responsible for all of the antimicrobial properties of SP 25A.
# Listeria monocytogenes EGDe was thawed and subcultured twice at 37° C. in brain heart infusion broth (BHI) (DIFCO, Franklin Lanes, N.J.). An overnight culture was diluted 10 fold in sterile medium and grown for 4 h to an OD600 of 1.7, which corresponded to ˜10^9 cfu/mL. The cell preparation was exposed to either 3 μg/mL SP 25A or 6 μg/mL RLs. Treatment with both RLs and SP 25A caused membrane permeabilization (FIG. 6A), but each reduced cell growth (FIG. 6B) of L. monocytogenes by different amounts. […]
# (§1) Total RNA was extracted from a 1.8 mL culture immediately before treating the cells with SP 25A and RLs (T0), after 30 min (T30), and at 120 min (T120) of exposure at 37° C. Simultaneously, the cell density was measured at OD600. Membrane permeabilization was determined by measuring the PI uptake. […] Each well contained five probes for each open reading frame in the entire genome.
# RBC = conditions: reported by Dalla Serra et al. 1999; cited from earlier work
# Eschereschia coli K12 = assay: MIC, microbroth dilution method; type: cell-based; conditions: 48 h
# Method: (§2) The MIC of the compounds for the organisms was determined by the microbroth dilution method, described hereafter. The microorganisms were prepared as described above and resuspended in their optimal growth media (Table 1) to ˜10^5 CFU/mL containing SP 25A at 2, 3, 4, 5, 6, 7, 8, 16, 32 and 50 μg/mL in a total volume of 550 μL. RL concentrations of 2, 3, 4, 5, 6, 7, 8, 16, 32 and 60 μg/mL in a total volume of 550 μL were tested in a 48-well plate (Corning, N.Y.). The plates were incubated at optimal growth conditions for the respective organism and monitored for an increase in OD600 after 48 h by a Perkin-Elmer (HTS 7000) plate reader (Downers Grove, Ill.). […] Negative controls (no inhibition of growth) were included using saline in the assay for each compound. The lowest concentration at which there was no increase in OD over 48 h was reported as the MIC. Each MIC was determined in replicate with three separate tests per replication. The results of the three tests were averaged for each replicate.
# [2] = tested on: Streptococcus agalacticae; assay: MIC, microbroth dilution method; type: cell-based; conditions: 48 h
# Method: as §2
# Flavobacterium devorans = assay: MIC, microbroth dilution method; type: cell-based; conditions: 48 h
# Method: as §2
# Enterobacter aerogenes = assay: MIC, microbroth dilution method; type: cell-based; conditions: 48 h
# Method: as §2
# Listeria innocua = assay: MIC, microbroth dilution method; type: cell-based; conditions: 48 h
# Method: as §2
# [3] = tested on: Klebsiella pneumoniae subsp. Pneumoniae; assay: MIC, microbroth dilution method; type: cell-based; conditions: 48 h
# Method: as §2
# Bacillus megaterium [4] = assay: MIC, microbroth dilution method; type: cell-based; conditions: 48 h
# Method: as §2
# Bacillus cereus = assay: Inhibition rate (IR), propidium iodide uptake; type: cell-based
# Method: (§3) The antimicrobial action for each compound was initially determined by the rate of uptake of propidium iodide (Fluoropure grade, Molecular Probes, Inc., Eugene, Oreg.) as previously described (Haughland, R. P., 2002, Handbook of fluorescent probes and research chemicals, 9th ed. Molecular Probes, Inc., Eugene, Oreg.). Briefly, all cultures were grown overnight in their respective optimal growth medium and temperature from freezer vials (Table 1). Each culture was sub-cultured twice, harvested in mid-log phase, washed with saline, and adjusted to an appropriate concentration by measuring the optical density at 600 nm. PI, with an excitation wavelength of 535 and an emission wavelength of 617, was added to the culture suspension at a final concentration of 10 μM. Each organism was treated with 50 μg/mL SP 25A and 60 μg/mL of the RL mixture in a final volume of 2.2 mL. The increase in fluorescence was measured with a Shimadzu RF 1501 spectrophotofluorometer at 15 s intervals for a maximum period of 120 min. Saline was added in place of SP 25A or RLs as a negative control. All inhibition experiments were done in replicate.
# (§4) The rate of antimicrobial action was expressed as the inhibition rate (“IR”). Curve fitting was done using OriginPro version 7.0 (Natick, Mass.). IR=((Log RFU/(Time))−C)/Time (when d Log RFU/dT>0). Where RFU=relative fluorescent units; and C=Y intercept.
# [5] = tested on: Lactococcus lactis subsp. Lactis; assay: Inhibition rate (IR), propidium iodide uptake; type: cell-based
# Method: as §3, §4
# Micrococcus luteus = assay: Inhibition rate (IR), propidium iodide uptake; type: cell-based
# Method: as §3, §4
# Bacillus megaterium [6] = assay: Inhibition rate (IR), propidium iodide uptake; type: cell-based
# Method: as §3, §4
# [7] = tested on: Listeria monocytogenes EGDe; assay: Membrane permeabilization by PI uptake during treatment; type: cell-based
# Method: Membrane permeabilization was determined through following the change in fluorescence of a dye, propidium iodide (“PI”). PI is unable to pass through the cell membrane unless the membrane has been physically compromised. Once inside the cell, the intercalation of the PI with the DNA of the cell causes the fluorescent properties of the dye to change. This change in fluorescence can be measured. Therefore, an uptake of PI indicates an increase in membrane permeabilization.
# FIGS. 6A includes a graph that illustrates the amount of membrane permeabilization in response to SP 25A and RLs. Membrane permeabilization was determined by the increase in fluorescence (RFU) with PI uptake during treatment of L. monocytogenes with SP 25A and RLs over a period of 120 min.
# Listeria monocytogenes EGDe was thawed and subcultured twice at 37° C. in brain heart infusion broth (BHI) (DIFCO, Franklin Lanes, N.J.). […]
# as §1
smiles,measurement,setting,value
"C/C=C(\NC(=O)C(C)NC(=O)C(C)NC(=O)C(CC(C)C)NC(=O)C(NC(=O)C(C)NC(=O)C(C)NC(=O)C(NC(=O)C1CCCN1C(=O)/C(=C/C)NC(=O)CC(O)CCCCCCC)C(C)C)C(C)C)C(=O)NC(C(=O)N/C(=C\C)C(=O)NC(C)C(=O)NC(C(=O)NC(C)C(=O)NC(C)C(=O)N/C(=C\C)C(=O)NC1C(=O)NC(CO)C(=O)NC(C)C(=O)NC(C(C)C)C(=O)NC(C)C(=O)NC(CCN)C(=O)NC(CCN)C(=O)NC(Cc2ccc(O)cc2)C(=O)OC1C)C(C)C)C(C)C (stereo not shown) [SP 25A, syringopeptin 25A] ({Decanoyl(3ξ-OH)}-[Dhb]PVAAVLAA[Dhb]V[Dhb]AVAA[Dhb]TSAVA[Dab][Dab]Y; ester 18-C; configuration not given here)",growth of culture (cell density),"[1]; 3 μg/mL SP 25A, during 120 min, control culture grew by 15.3%",did not grow
same,inhibition of cell growth,"[1]; in comparison to the saline control, 120 min",completely inhibited cell growth; also recorded: complete inhibition of cell growth
same,concentration to achieve 50% RBC hemolysis,RBC,8880 ng/mL
same,MIC,Eschereschia coli K12,>50 µg/mL
same,MIC,[2],8 µg/mL
same,MIC,Flavobacterium devorans,4 µg/mL
same,MIC,Enterobacter aerogenes,>50 µg/mL
same,MIC,Listeria innocua,3 µg/mL
same,MIC,[3],>50 µg/mL
same,MIC,Bacillus megaterium [4],3 µg/mL
same,IR SP 25A (50 μg/mL),Bacillus cereus,0.004
same,IR SP 25A (50 μg/mL),[5],0.008
same,IR SP 25A (50 μg/mL),Micrococcus luteus,0.006
same,IR SP 25A (50 μg/mL),Bacillus megaterium [6],0.005
same,increase in membrane permeabilization (PI uptake),"[7]; L. monocytogenes EGDe, 3 μg/mL SP 25A, after 30 min",~2% and 2.6%
same,PI uptake (membrane permeabilization),"[7]; L. monocytogenes, sub-MIC doses, over 120 min",did not
